Reference: ChEMBL document CHEMBL4842377, “Synthesis and biological evaluation of selective histone deacetylase 6 inhibitors as multifunctional agents against Alzheimer's disease” (Eur J Med Chem, 2021)
The source made the active and inactive calls. No cut-off for these calls is given here.

Key:
[1] = target: T1, Protein deacetylase HDAC6 (Homo sapiens, UniProt Q9UBN7); assay: Inhibition of human HDAC6 using fluorogenic substrate incubated for 1 hrs by fluorescence plate reader assay
T1 sequence (Q9UBN7 whole entry): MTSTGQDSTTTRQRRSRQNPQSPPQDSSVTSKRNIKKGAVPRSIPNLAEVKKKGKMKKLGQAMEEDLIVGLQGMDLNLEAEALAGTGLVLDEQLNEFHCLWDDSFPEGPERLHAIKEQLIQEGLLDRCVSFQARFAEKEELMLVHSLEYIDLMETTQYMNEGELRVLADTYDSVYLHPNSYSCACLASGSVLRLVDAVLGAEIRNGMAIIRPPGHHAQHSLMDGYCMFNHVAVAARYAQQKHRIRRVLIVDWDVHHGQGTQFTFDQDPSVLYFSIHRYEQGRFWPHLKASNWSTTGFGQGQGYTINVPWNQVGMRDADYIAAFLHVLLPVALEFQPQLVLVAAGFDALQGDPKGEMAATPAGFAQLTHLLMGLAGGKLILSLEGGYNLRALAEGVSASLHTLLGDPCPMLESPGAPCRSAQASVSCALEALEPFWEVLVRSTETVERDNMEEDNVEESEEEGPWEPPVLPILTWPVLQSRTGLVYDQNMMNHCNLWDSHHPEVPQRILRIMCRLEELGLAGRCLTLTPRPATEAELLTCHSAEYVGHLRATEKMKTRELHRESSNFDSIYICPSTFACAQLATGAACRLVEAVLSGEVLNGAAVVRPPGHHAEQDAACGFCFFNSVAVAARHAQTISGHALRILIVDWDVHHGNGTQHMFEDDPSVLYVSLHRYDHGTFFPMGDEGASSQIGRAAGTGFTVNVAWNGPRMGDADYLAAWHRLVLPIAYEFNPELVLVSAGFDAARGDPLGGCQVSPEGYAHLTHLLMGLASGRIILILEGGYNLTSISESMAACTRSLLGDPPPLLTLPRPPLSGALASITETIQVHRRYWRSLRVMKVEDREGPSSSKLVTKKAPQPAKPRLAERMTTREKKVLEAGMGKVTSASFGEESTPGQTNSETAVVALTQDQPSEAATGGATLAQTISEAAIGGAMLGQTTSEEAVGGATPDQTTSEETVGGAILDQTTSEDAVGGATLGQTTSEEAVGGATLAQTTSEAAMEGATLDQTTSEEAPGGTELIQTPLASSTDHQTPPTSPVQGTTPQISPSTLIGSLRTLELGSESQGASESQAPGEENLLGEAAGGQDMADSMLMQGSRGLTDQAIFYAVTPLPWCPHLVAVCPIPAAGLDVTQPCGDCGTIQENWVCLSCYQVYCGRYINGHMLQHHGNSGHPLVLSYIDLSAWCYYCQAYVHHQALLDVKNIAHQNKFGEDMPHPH

SH-SY5Y = assay: Neuroprotective activity against Cu2+/amyloid beta (1 to 42)-induced toxicity in human SH-SY5Y cells assessed as increase in cell viability at 3 uM after 24 hrs by MTT assay (reference value: 47.2%); type: functional
[2] = Disaggregation of Cu2+ induced amyloid beta (1 to 42 residues) (unknown origin) aggregation measuring reduction in fluorescence intensity at 20 uM after 24 hrs by thioflavin-T fluorescence method relative to control
[3] = Inhibition of Cu2+ induced amyloid beta (1 to 42 residues) (unknown origin) aggregation by measuring reduction in fluorescence intensity at 20 uM after 24 hrs by thioflavin-T fluorescence method relative to control

SMILES: CCNC(=O)Cn1cc(CN2c3ccccc3Sc3ccccc32)cn1
- IC50 [1]: > 1000 nM

SMILES: C[C@]12CC3CC(NCc4ccc(C(=O)NO)cn4)(C1)C[C@@](C)(C3)C2
- IC50 [1]: 537 nM

SMILES: Cc1ccc2c(c1)c1c(n2Cc2ccc(C(=O)NO)cn2)CCN(C)C1
- IC50 [1]: 83 nM

SMILES: O=C(NO)c1coc(CN2c3ccccc3Sc3ccccc32)n1
- IC50 [1]: 884 nM

SMILES: Oc1c(I)cc(Cl)c2cccnc12 [CLIOQUINOL]
- Activity (SH-SY5Y): 86.2%
- Activity [2]: Active
- inhibition [3]: 38.9%

SMILES: CNC(=O)Cn1cc(CN2c3ccccc3Sc3ccccc32)cn1
- IC50 [1]: > 1000 nM

SMILES: O=C(/C=C/c1ccc(CN2c3ccccc3Sc3ccccc32)cc1)NO
- IC50 [1]: 463 nM

SMILES: O=C(CCc1ccc(CN2c3ccccc3Sc3ccccc32)cc1)NO
- IC50 [1]: 343 nM

SMILES: CNC(=O)c1ccc(CN2c3ccccc3Sc3ccccc32)nc1
- IC50 [1]: > 1000 nM

SMILES: COc1ccc2c(c1)c1c(n2Cc2ccc(C(=O)NO)cn2)CCN(C)C1
- IC50 [1]: 53 nM
